Laboratory results reported in US6207644A, “Peptide analogues containing a 7-membered lactam ring” (Zeneca Limited, priority 1996, dated 2001).

How the values were obtained:
HLA-DR4Dw4 = target: T1, HLA-DR4Dw4 (Homo sapiens, UniProt P01903+P01911, A100K/A169T/F76Y/I96L/K127E/L162R/M171V/N62H/P40V/Q125Y/R42H/S133A/S149N/S66Y/V115G/V209L/W38E); assay: Test A: purified HLA-DR peptide in vitro binding assay (or its variant)
T1 construct: made in house; host or cells: double-recombinant baculovirus in Sf21 insect cells (Test A), or the human JAH cell line (variant to Test A)
Procedure: Purified HLA-DR peptide in vitro binding assay. […]. At the end of the incubation period 100 μl of the incubate is transferred to Enzyme Linked ImmunoSorbant Assay (ELISA) plates (Nunc) previously coated with an anti-MHC antibody (L243-American Type Culture Collection (ATCC) HB55 as described in Lampson and Levy (1980) J. Immunol. 125, 293-299) at a concentration of 10 μg/ml for 1 hour at room temperature and blocked thereafter for 1 hour with 1% bovine serum albumin (BSA) in PBS and 0.05% Tween 20. […] The reaction is stopped by adding 2M sulphuric acid (10 μl per well) and the absorbance read at 450 nm to quantify the amount of peptide bound. The inhibitory activity of peptides is obtained by plotting absorbance against concentration. […]
To create the double-recombinant baculovirus, a cDNA encoding the β chain is cloned into the transfer vector pAcUW1 [Weyer, U; Knight, S & Possee, R D (1990) J. Gen. […] Double-recombinant viruses are detected by spotting insecT-cells, infected with randomly picked viruses from the transfection,onto membranes and reacting them with a monoclonal antibody e.g. L243 which specifically recognises the HLA-DR heterodimer. Binding of the antibody to Sf21 insecT-cells is detected using standard flow cytometry techniques, readily available in the literature. […]

HLA-DR1 = assay: Variant to Test A: peptide selectivity binding assay, HLA-DR1; parameters: species or system human
Procedure: (§1) As a varient to test A, the ability of a peptide of the invention to bind to one or more HLA-DR molecules was assessed as follows:
(§2) The method used was a modification of that described by Gorga et al, 1987, J.Biol.Chem. 262, 16087-16094. Human HLA-DR antigens were purified from various cell lines by immunoaffinity chromatography. […] Protein content was determined by a Biorad protein assay and purity by SDS-PAGE electrophoresis.
(§3) 200 nM biotin-FHA307-320 in phosphate buffered saline (PBS) was incubated with either purified HLA-DR1, DR2, DR4Dw4, DR4Dw13 or DR4Dw14 (2-20 μg/ml) in V-well microtitre plates (Nunc) with or without inhibitor peptides in assay buffer (PBS, 0.01% NP40 (Sigma.)) For DR3 inhibition, 400 nM Biotin-Ahx-(D)Ala-Ala-Ala-Che-Ile-Ala-Ala-Ala-Thr-Leu-Lys-Ala-Ala-(D)Ala-OH (SEQ ID NO:25) was incubated with purified DR3 (20 μg/ml), and incubated as above. After 48 hours, the incubates were treated, and absorbance readings taken as described in Test A. The inhibitory activity of peptides, expressed as IC50 values, was calculating using Microcal Origin software on a PC.

HLA-DR2 = assay: Variant to Test A: peptide selectivity binding assay, HLA-DR2; parameters: species or system human
Procedure: as §1, §2, §3

HLA-DR3 = assay: Variant to Test A: peptide selectivity binding assay, HLA-DR3; parameters: species or system human; details: no significant binding
Procedure: as §1, §2, §3

BALB/C mice = assay: Test C: peptide stimulated DTH (delayed type hypersensitivity) in BALB/C mice; assay type: in vivo; details: osmotic mini-pump
Procedure: Peptide stimulated DTH (delayed type hypersensitivity) in BALB/C mice. […] Balb/c female mice (18-20 g), 5 per group, were immunised sub-cutaneously on the flank with 0.1 ml of an emulsion of ovalbumin (Sigma) (2 mg/ml in saline) mixed 1:1 (v/v) with complete Freunds adjurant (Sigma). Seven days later footpad thickness was detemined using a dual caliper micrometer followed by a challenge in one hind footpad with a 30 μl sub-plantar injection of 1% heat-aggregated ovalbumin protein in saline. Twenty-four hours after antigen challenge, footpads were measured and the DTH response calculated as the percentage increase in footpad thickness in the injected footpad compared to contralateral control. Inhibitors were adminstered by 3-day osmotic mini-pumps (Alzet) implanted 24 hours prior to antigen challenge at doses ranging from 10 mg/kg/day to 0.1 μg/kg/day. The degree of inhibition was calculated by substracting the value for swelling of inhibitor treated footpads from that of the vehicle dosed controls, dividing by the control value and multiplying by 100%.

[1] = Aqueous stability of peptide in McIlvaine's buffer; assay type: physicochemical
Procedure: A typical procedure for measuring the stability of a peptide compound of the present invention is as follows, in which, to minimize microbial contamination and degradation, all equipment that is used to prepare peptide solutions is sterilized in an autoclave and all material transfers carried out in a Class II laminar flow cabinet. Approximately 20 ml of McIlvaine's citric acid-phosphate buffer solution at pH 3 or 7.6 containing 0.02% sodium azide is filtered into a 50 ml bottle using a sterile […] filter unit and a 20 ml syringe. Approximately 1.2 mg of peptide is accurately weighed in a capped vial. Using a sterile pipette tip, sufficient buffer solution is added to the peptide in the vial to give a peptide concentration of 0.1 mg/ml. The vial is capped and shaken to dissolve the peptide. Using a sterile pipette tip, aliquots of approximately 1 ml of the peptide solution are transferred to 10 HPLC vials, which are then capped. 5 vials are stored at -18 and 37° C. The area of the peptide peak for the solution is determined by HPLC using appropriate standards initially and after storage at -18 and 37° C. for 1, 2, 3 and 4 weeks, using a fresh vial at each time point with duplicate sample injections. The percentage of peptide remaining after storage at 37° C. at each time point is determined from the ratio of the area of the peptide peak at each time point to the initial area. […]

[2] = Loss of peptide due to degradation on extrusion of polymer depot formulation; assay type: physicochemical; details: in the form of a polymer depot formulation
Procedure: Typical procedures for measuring the level of degradation of a peptide compound of the present invention are as follows:
About 20 mg of peptide is accurately weighed and sufficient polymer (50/50% molar poly(D,L-lactic acid/glycolic acid) copolymer of approximate weight average molecular weight 20 kD and approximate polydispersity of 1.7 as determined by size exclusion chromatography relative to polystyrene standards) added to produce an approximate 20% w/w mixture. This is dissolved in anhydride-free glacial acetic acid to produce an approximate 10% w/v solution. The solution is freeze dried and the resulting freeze dried product is stored under vacuum prior to use.
About 100 mg of freeze dried material is loaded into the barrel of a small laboratory extruder and the plunger pushed down to consolidate the sample. […]
Each standard is filtered through a 5 μm Millex PTFE filter and an aliquot of filtrate, together with aliquots of the solutions A, analysed by HPLC using duplicate sample injections. The peptide content of the extruded polymer depot formulation of peptide is calculated from the concentration of peptide in solutions A, which is determined by comparing the area of the peptide peak in solutions A with the area of the peptide peak from the standard solutions.

[3] = Degradation of peptide on in vitro release from an extruded polymer depot; assay type: physicochemical; details: in the form of a polymer depot formulation
Procedure: A solution of McIlvaine's citric acid-phosphate buffer solution at pH 7.6 containing 0.02% sodium azide, is filtered through a 0.22μ filter and stored at 4° C. Approximately 10 mg of extruded polymer depot containing peptide is placed in two small vials and 2 ml of the buffer solution added. The vials are then capped and stored in a water bath at 37° C. for a month. At suitable time points over a month, three 0.6 ml aliquots of release medium are removed from each vial and either analysed by HPLC or stored frozen in an HPLC vial at -18° C. prior to analysis by HPLC. 1.8 ml of the buffer solution is added to each vial containing the depot to replace the release medium that has been removed at each time point.
The average amount of intact peptide in the release medium at each time point is determined by HPLC using duplicate sample injections by comparing the area of the peptide peak in the release media with the area of the peptide peak from standard buffer solutions of peptide at known concentrations. The approximate average amount of peptide degradation products in the release media at each time point is determined by HPLC by comparing the area of additional new peaks in the release media with the area of the peptide peak from standard buffer solutions of peptide at known concentrations and assuming the extinction coefficient has not changed. […]

C[C@H](NC(=O)CN1CCCC[C@H](NC(=O)[C@H](C)NC(=O)[C@H](C)NC(=O)[C@H](CCCNC(=N)N)NC(=O)CCCCc2ccccc2)C1=O)C(=O)N[C@@H](C)C(=O)N[C@@H](C)C(=O)Nc1ccc(CC(N)=O)cc1 [Example 1, Phv-Arg-Ala-Ala-IIb-Ala-Ala-Ala-Papa-NH2]
concentration showing significant binding to HLA-DR4Dw4 (HLA-DR4Dw4): ≤ 0.1 µM
binding to HLA-DR1 (HLA-DR1): significant binding
binding to HLA-DR2 (HLA-DR2): significant binding
IC50 (HLA-DR3): > 100 µM
dose at which active in Test C (BALB/C mice): < 0.1 mg/kg/day
aqueous stability ([1]; pH3): good aqueous stability
aqueous stability ([1]; pH7.6): good aqueous stability
loss due to degradation on extrusion [2]: minimal loss due to degradation on extrusion
degradation on release from depot formulation [3]: minimal degradation on release
